# Source: patent publication US6706683B1, “Method for controlling the release of granules” (Asahi Kasei Pharma Corporation, priority 1998, dated 2004)
# B1: calgranulin A: calcium-binding protein with a molecular weight of about 8 kD; SEQ ID NOS 1 and 3 (protein, listed as Homo sapiens)
# chain: MLTELEKALNSIIDVYHKYSLIKGNFHAVYRDDLKKLLETECPQYIRKKGADVWFKELDINTDGAVNFQEFLILVIKMGVAAHKKSHEESHKE
# B2: calgranulin B: calcium-binding protein with a molecular weight of about 14 kD; SEQ ID NOS 2 and 4 (protein, listed as Homo sapiens)
# chain: MTCKMSQLERNIETIINTFHQYSVKLGHPDTLNQGEFKELVRKDLQNFLKKENKNEKVIEHIMEDLDTNADKQLSFEEFIMLMARLTWASHEKMHEGDEGPGHHHKPGLGEGTP
# Legend:
# [1] = tested on: neutrophils; test: Screening of samples in calgranulin-stimulated elastase secretion from permeabilized neutrophils (Example 3); format: cell-based, human; conditions: sample 30 μM; for Amount of secretion (%): elastase, control without sample = 100%, calcium chloride 1 μM plus calgranulin (type and concentration not given); for effect on elastase (granule) secretion from neutrophils, in words: calgranulin A activated system
# [2] = tested on: human neutrophils; test: Elastase secretion from permeabilized human neutrophils on addition of calgranulin and calcium chloride (Example 1); format: cell-based; conditions: 3 μM calgranulin, 1 μM calcium chloride, digitonin-permeabilized neutrophils, 37° C. 5 minutes
# Protocol: A neutrophil suspension was prepared from blood collected from human vein according to the method described in Biological Chemistry Experiment Lecture, second series, No. 8, Blood, Vol. 2, 679-685). The neutrophil suspension was adjusted to a concentration of 1×10^7 cells/ml in a plastic test tube using a permeabilized buffer (PB) (30 mM HEPES, 100 mM KCl, 20 mM NaCl, 1 mM EGTA, pH 7.0) and incubated at 37° C. for 10 minutes. Digitonin (Sigma company) was added to the neutrophil suspension to a final concentration of 5-7.5 μg/ml and the mixture was incubated at, 37° C. for 15 minutes. The neutrophil suspension was centrifuged at 1200 rpm for 5 minutes. After discarding supernatant, precipitated neutrophils were re-suspended in PB to prepare a permeabilized neutrophil suspension (cell concentration: 1×10^7/ml).
# The permeabilized neutrophil suspension was added to a 96-well immunoplate, 200 μl per well, and incubated for at 37° C. 15 minutes. […]
# The 96-well immunoplate was centrifuged at 1200 rpm for one minute at 4° C. using a centrifugation container for immunoplates. […] Then, absorbance at 405 nm was measured using a microplate reader.
# [3] = tested on: human neutrophils; test: Lactoferrin secretion from permeabilized human neutrophils on addition of calgranulin and calcium chloride, ELISA (Example 2); format: cell-based; conditions: 3 μM calgranulin, 1 μM calcium chloride, digitonin-permeabilized neutrophils, 37° C. 5 minutes
# Protocol: A neutrophil suspension was prepared from blood collected from human vein according to the method described in Biological Chemistry Experiment Lecture, second series, No. 8, Blood, Vol. 2, 679-685). The neutrophil suspension was adjusted to a concentration of 1×10^7 cells/ml using PB in a plastic test tube and incubated at 37° C. for 10 minutes. Digitonin (Sigma company) was added to the neutrophil suspension to a final concentration of 5 μg/ml and the mixture was incubated at 37° C. for 15 minutes.
# The neutrophil suspension was centrifuged at 1200 rpm for 5 minutes. After supernatant was discarded, precipitated neutrophils were re-suspended in PB to prepare a permeabilized neutrophil suspension (cell concentration: 1×10^7 cells/ml). The permeabilized neutrophil suspension was added to a 96-well immunoplate, 200 μl per well, and incubated at 37° C. for 15 minutes. Next, an aqueous solution of calcium chloride (final concentration: 1 μM) and calgranulin A, calgranulin B, or a equimolar mixture of calgranulin A and calgranulin B (each to a final concentration of 0 μM, 0.3 μM, 1 μM, or 3 μM) were added, and the resulting mixtures were incubated at 37° C. for 5 minutes. The 96-well immunoplate was centrifuged at 1200 rpm for one minute at 4° C. ELISA-kit (OXIS Co.) was used for the determination of lactoferrin. […]
Molecule,Amount of secretion (%) [1],"effect on elastase (granule) secretion from neutrophils, in words [1]","amount of elastase secretion, assuming secretion in the absence of calgranulin is 1 [2]","amount of lactoferrin secretion, assuming secretion in the absence of calgranulin is 1 [3]"
"COc1ccc(CN(CCCCCCCN2CCNCC2)c2ccc(OC)cc2)cc1.Cl.Cl.Cl [Compound 1, N-(4-methoxybenzyl)-N-(4-methoxyphenyl)-7-piperazinylheptyl amine trihydrochloride]",61%,remarkably controlled granule secretion,–,–
"COc1ccc(N(CCCCCCCN2CCNCC2)Cc2ccccc2)cc1.Cl.Cl.Cl [Compound 2, N-benzyl-N-(4-methoxyphenyl)-7-piperazinylheptylamine trihydrochloride]",51%,remarkably controlled granule secretion,–,–
"CCCCCCC(CC)=C(c1ccc(O)cc1)c1ccc(O)cc1 [Compound 3, 1,1-(di-4-hydroxyphenyl)-2-ethyl-1-octaene]",151%,remarkably increased the amount of secretion,–,–
B1,–,–,about eight,about six
B2,–,–,about seven,about five
